Tests used:
Test in all cases: biochemical
Assay type in all cases: biochemical
Conditions in all cases: 15 nM tritium labelled cAMP, 1 hr at room temperature
PDE1A = PDE1A (Homo sapiens (Human), UniProt P54750)
Source text: (§1) Table 1 lists the IC50 value for inhibition of PDE1 by the compounds of the invention. […] PDE1 assays are described in the Experimental Section.

PDE1B = PDE1B (Homo sapiens (Human), UniProt Q01064)
Source text: as §1

PDE1C = PDE1C (Homo sapiens (Human), UniProt Q14123)
Source text: as §1

Chain of PDE1C (Q14123 whole entry): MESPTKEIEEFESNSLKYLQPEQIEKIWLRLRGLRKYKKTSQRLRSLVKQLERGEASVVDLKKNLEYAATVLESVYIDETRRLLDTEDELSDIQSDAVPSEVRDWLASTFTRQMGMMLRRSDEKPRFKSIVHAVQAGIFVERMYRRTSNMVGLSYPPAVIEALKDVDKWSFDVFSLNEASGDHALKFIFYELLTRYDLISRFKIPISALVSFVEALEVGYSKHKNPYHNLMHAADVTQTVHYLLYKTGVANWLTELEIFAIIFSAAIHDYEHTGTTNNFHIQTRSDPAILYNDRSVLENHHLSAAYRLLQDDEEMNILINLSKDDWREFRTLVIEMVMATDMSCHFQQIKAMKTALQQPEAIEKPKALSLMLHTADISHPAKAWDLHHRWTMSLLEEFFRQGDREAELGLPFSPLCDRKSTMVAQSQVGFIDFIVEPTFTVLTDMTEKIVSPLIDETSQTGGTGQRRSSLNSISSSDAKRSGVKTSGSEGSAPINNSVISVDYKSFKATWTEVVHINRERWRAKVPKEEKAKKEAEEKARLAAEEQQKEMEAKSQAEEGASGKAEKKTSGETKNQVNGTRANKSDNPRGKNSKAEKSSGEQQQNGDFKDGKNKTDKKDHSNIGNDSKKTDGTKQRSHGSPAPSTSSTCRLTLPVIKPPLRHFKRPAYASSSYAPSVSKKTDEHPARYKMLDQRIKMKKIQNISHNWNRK
Chain of PDE1B (Q01064 whole entry): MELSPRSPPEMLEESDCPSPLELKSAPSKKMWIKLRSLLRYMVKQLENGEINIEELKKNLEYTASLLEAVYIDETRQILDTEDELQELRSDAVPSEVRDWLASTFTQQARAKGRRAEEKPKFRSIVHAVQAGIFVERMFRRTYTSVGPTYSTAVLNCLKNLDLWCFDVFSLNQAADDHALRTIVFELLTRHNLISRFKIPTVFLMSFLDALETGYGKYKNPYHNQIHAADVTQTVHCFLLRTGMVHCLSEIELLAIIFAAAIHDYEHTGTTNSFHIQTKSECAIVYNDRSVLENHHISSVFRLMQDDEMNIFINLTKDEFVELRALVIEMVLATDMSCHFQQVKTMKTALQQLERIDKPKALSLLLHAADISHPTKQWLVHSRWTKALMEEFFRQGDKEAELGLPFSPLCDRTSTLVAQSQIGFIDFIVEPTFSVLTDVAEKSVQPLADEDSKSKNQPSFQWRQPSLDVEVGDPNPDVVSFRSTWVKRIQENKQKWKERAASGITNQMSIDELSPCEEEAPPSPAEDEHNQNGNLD
Chain of PDE1A (P54750 whole entry): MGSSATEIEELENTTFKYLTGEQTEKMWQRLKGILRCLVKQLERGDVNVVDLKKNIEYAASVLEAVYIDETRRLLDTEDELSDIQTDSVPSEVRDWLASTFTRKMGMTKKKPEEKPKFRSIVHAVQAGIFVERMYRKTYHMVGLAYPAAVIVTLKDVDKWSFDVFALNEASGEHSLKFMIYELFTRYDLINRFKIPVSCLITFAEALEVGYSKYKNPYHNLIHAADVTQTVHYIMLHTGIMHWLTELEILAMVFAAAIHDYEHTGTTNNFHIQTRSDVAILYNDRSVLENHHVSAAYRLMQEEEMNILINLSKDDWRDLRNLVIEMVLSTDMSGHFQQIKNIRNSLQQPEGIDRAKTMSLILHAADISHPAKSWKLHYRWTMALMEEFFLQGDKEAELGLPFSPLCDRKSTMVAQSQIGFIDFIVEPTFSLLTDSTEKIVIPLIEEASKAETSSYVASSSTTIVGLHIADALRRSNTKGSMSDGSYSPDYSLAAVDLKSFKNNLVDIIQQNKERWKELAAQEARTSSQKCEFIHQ

Row | SMILES | IC50 (PDE1A) [nM] | IC50 (PDE1B) [nM] | IC50 (PDE1C) [nM]
1 | CCOc1ncccc1-c1cc(NCc2cccc3nsnc23)c2c(n1)c(C)nn2C(C)C [Example 2a, N-(2,1,3-benzothiadiazol-4-ylmethyl)-5-(2-ethoxy-3-pyridyl)-1-isopropyl-3-methyl-pyrazolo[4,3-b]pyridin-7-amine] | 53 | 3.4 | 140
2 | CCOc1nnccc1-c1cc(NCc2ncn(C)n2)c2c(n1)c(C)nn2C(C)C [Example 18b, 5-(3-ethoxypyridazin-4-yl)-1-isopropyl-3-methyl-N-[(1-methyl-1,2,4-triazol-3-yl)methyl]pyrazolo[4,3-b]pyridin-7-amine] | 3.6 | 0.59 | 17
3 | CCOc1nnccc1-c1cc(NCc2ncc(F)cn2)c2c(n1)c(C)nn2C(C)C [Example 10b, 5-(3-ethoxypyridazin-4-yl)-N-[(5-fluoropyrimidin-2-yl)methyl]-1-isopropyl-3-methyl-pyrazolo[4,3-b]pyridin-7-amine] | 21 | 2.4 | 67
4 | CCOc1ncccc1-c1cc(NCc2ccc3oc(C)nc3c2)c2c(n1)c(C)nn2C(C)C [Example 12a, 5-(2-ethoxy-3-pyridyl)-1-isopropyl-3-methyl-N-[(2-methyl-1,3-benzoxazol-5-yl)methyl]pyrazolo[4,3-b]pyridin-7-amine] | 8.7 | 0.81 | 31
5 | CCOc1cnccc1-c1cc(NCc2ncn(C)n2)c2c(n1)c(C)nn2C(C)C [Example 19b, 5-(3-ethoxy-4-pyridyl)-1-isopropyl-3-methyl-N-[(1-methyl-1,2,4-triazol-3-yl)methyl]pyrazolo[4,3-b]pyridin-7-amine] | 11 | 0.91 | 22
6 | CCOc1nnccc1-c1cc(NCc2cccc3ocnc23)c2c(n1)c(C)nn2C(C)C [Example 13a, N-(1,3-benzoxazol-4-ylmethyl)-5-(3-ethoxypyridazin-4-yl)-1-isopropyl-3-methyl-pyrazolo[4,3-b]pyridin-7-amine] | 39 | 1.7 | 93
7 | CCOc1ncccc1-c1cc(NCc2cccn3nccc23)c2c(n1)c(C)nn2C(C)C [Example 5a, 5-(2-ethoxy-3-pyridyl)-1-isopropyl-3-methyl-N-(pyrazolo[1,5-a]pyridin-4-ylmethyl)pyrazolo[4,3-b]pyridin-7-amine] | 53 | 7.1 | 95
8 | CCCOc1nnccc1-c1cc(NCc2cnn(C)c2)c2c(n1)c(C)nn2C(C)C [Example 4b, 1-isopropyl-3-methyl-N-[(1-methylpyrazol-4-yl)methyl]-5-(3-propoxypyridazin-4-yl)pyrazolo[4,3-b]pyridin-7-amine] | 3.2 | 0.35 | 18
9 | CCOc1nnccc1-c1cc(NCc2ncccn2)c2c(n1)c(C)nn2C(C)C [Example 1b, 5-(3-ethoxypyridazin-4-yl)-1-isopropyl-3-methyl-N-(pyrimidin-2-ylmethyl)pyrazolo[4,3-b]pyridin-7-amine] | 11 | 1.3 | 48
10 | CCOc1ncccc1-c1cc(NCc2nccc3nccn23)c2c(n1)c(C)nn2C(C)C [Example 16a, 5-(2-ethoxypyridin-3-yl)-N-(imidazo[1,2-c]pyrimidin-5-ylmethyl)-1-isopropyl-3-methyl-1H-pyrazolo[4,3-b]pyridin-7-amine] | 35 | 4 | 44
11 | CCOc1cnccc1-c1cc(NCc2cnc(C)s2)c2c(n1)c(C)nn2C(C)C [Example 21b, 5-(3-ethoxy-4-pyridyl)-1-isopropyl-3-methyl-N-[(2-methylthiazol-5-yl)methyl]pyrazolo[4,3-b]pyridin-7-amine] | 5.6 | 0.64 | 14
12 | CCOc1nnccc1-c1cc(NCc2ccn(C)n2)c2c(n1)c(C)nn2C(C)C [Example 9b, 5-(3-ethoxypyridazin-4-yl)-1-isopropyl-3-methyl-N-[(1-methylpyrazol-3-yl)methyl]pyrazolo[4,3-b]pyridin-7-amine] | 5.2 | 0.6 | 22
13 | CCOc1ncccc1-c1cc(NCc2cccn3cncc23)c2c(n1)c(C)nn2C(C)C [Example 8a, 5-(2-ethoxy-3-pyridyl)-N-(imidazo[1,5-a]pyridin-8-ylmethyl)-1-isopropyl-3-methyl-pyrazolo[4,3-b]pyridin-7-amine] | 3.2 | 0.18 | 9.1
14 | CCOc1cnccc1-c1cc(NCc2ccccn2)c2c(n1)c(C)nn2C(C)C [Example 15b, 5-(3-ethoxy-4-pyridyl)-1-isopropyl-3-methyl-N-(2-pyridylmethyl)pyrazolo[4,3-b]pyridin-7-amine] | 17 | 1.4 | 55
15 | CCOc1cnccc1-c1cc(NCc2cc(C)[nH]n2)c2c(n1)c(C)nn2C(C)C [Example 23b, 5-(3-ethoxy-4-pyridyl)-1-isopropyl-3-methyl-N-[(5-methyl-1H-pyrazol-3-yl)methyl]pyrazolo[4,3-b]pyridin-7-amine] | 5.5 | 0.55 | 12
16 | Cc1nn(C(C)C)c2c(NCc3cnn(C)c3)cc(-c3cccc4cn[nH]c34)nc12 [Example 39b, 5-(1H-indazol-7-yl)-1-isopropyl-3-methyl-N-[(1-methylpyrazol-4-yl)methyl]pyrazolo[4,3-b]pyridin-7-amine] | 140 | 24 | 300
17 | CCOc1ncccc1-c1cc(NCc2cccn3ccnc23)c2c(n1)c(C)nn2C(C)C [Example 4a, 5-(2-ethoxy-3-pyridyl)-N-(imidazo[1,2-a]pyridin-8-ylmethyl)-1-isopropyl-3-methyl-pyrazolo[4,3-b]pyridin-7-amine] | 6.6 | 0.48 | 22
18 | CCOc1cnccc1-c1cc(NCc2cc[nH]n2)c2c(n1)c(C)nn2C(C)C [Example 13b, 5-(3-ethoxy-4-pyridyl)-1-isopropyl-3-methyl-N-(1H-pyrazol-3-ylmethyl)pyrazolo[4,3-b]pyridin-7-amine] | 24 | 2.5 | 56
19 | CCOc1ncccc1-c1cc(NCc2cccc3oc(C)nc23)c2c(n1)c(C)nn2C(C)C [Example 11a, 5-(2-ethoxy-3-pyridyl)-1-isopropyl-3-methyl-N-[(2-methyl-1,3-benzoxazol-4-yl)methyl]pyrazolo[4,3-b]pyridin-7-amine] | 18 | 4 | 26
20 | CCOc1nnccc1-c1cc(NCc2nnc(C)o2)c2c(n1)c(C)nn2C(C)C [Example 8b, 5-(3-ethoxypyridazin-4-yl)-1-isopropyl-3-methyl-N-[(5-methyl-1,3,4-oxadiazol-2-yl)methyl]pyrazolo[4,3-b]pyridin-7-amine] | 97 | 14 | 320
21 | CCOc1nnccc1-c1cc(NCc2cnc(C)s2)c2c(n1)c(C)nn2C(C)C [Example 20b, 5-(3-ethoxypyridazin-4-yl)-1-isopropyl-3-methyl-N-[(2-methylthiazol-5-yl)methyl]pyrazolo[4,3-b]pyridin-7-amine] | 5.7 | 1.1 | 24
22 | CCOc1nnccc1-c1cc(NCc2cccnc2F)c2c(n1)c(C)nn2C(C)C [Example 16b, 5-(3-ethoxypyridazin-4-yl)-N-[(2-fluoro-3-pyridyl)methyl]-1-isopropyl-3-methyl-pyrazolo[4,3-b]pyridin-7-amine] | 18 | 3.4 | 50
23 | CCOc1cnccc1-c1cc(NCc2cccnc2OC)c2c(n1)c(C)nn2C(C)C [Example 30b, 5-(3-ethoxy-4-pyridyl)-1-isopropyl-N-[(2-methoxy-3-pyridyl)methyl]-3-methyl-pyrazolo[4,3-b]pyridin-7-amine] | 27 | 2.7 | 65
